Reference: the supplement of paper PMC4862054

What was measured:
Conditions in all cases: incubation time: 72 h
CAL-85-1 = test: normalised viability (% of control), CellTiter-Blue; higher = more viable cells (about 100 = DMSO control)
Outline: (§1)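 After 72 h on compound-loaded 384-well plates, breast cancer cell lines received 2.5 µl CellTiter-Blue reagent for 2 h at 37 °C. Fluorescence at 560/590 nm was scaled per plate so that vehicle was 100 and a positive kill control was 0. The value stands for normalised viability at a single listed concentration of the series.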

SK-BR-3 = test: as above
Outline: as §1

MDA-MB-436 [1] = test: as above
Outline: as §1

CAL-51 [2] = test: as above
Outline: as §1

HDQ-P1 = test: as above
Outline: as §1

CAL-120 [3] = test: as above
Outline: as §1

Hs578T [4] = test: as above
Outline: as §1

BT-549 [5] = test: as above
Outline: as §1

CAL-148 = test: as above
Outline: as §1

MDA-MB-453 [6] = test: as above
Outline: as §1

BT-474 = test: as above
Outline: as §1

MDA-MB-231 [7] = test: as above
Outline: as §1

HCC1599 [8] = test: as above
Outline: as §1

DU-4475 = test: as above
Outline: as §1

MDA-MB-468 = test: as above
Outline: as §1

MFM-223 [9] = test: as above
Outline: as §1

HCC1937 [10] = test: as above
Outline: as §1

HCC1143 = test: as above
Outline: as §1

MDA-MB-436 [11] = test: normalised viability (% of control), CellTiter-Blue; higher = more viable cells (about 100 = DMSO control); remark: listed apart in the source
Protocol: (§2)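 DSRT, CellTiter-Blue viability, 72 h incubation. Signal is normalised to DMSO and benzethonium chloride controls. Value is the normalised response at dose 3.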

CAL-51 [12] = test: as above; remark: listed apart in the source
Protocol: as §2

CAL-120 [13] = test: as above; remark: listed apart in the source
Protocol: as §2

Hs578T [14] = test: as above; remark: listed apart in the source
Protocol: as §2

MDA-MB-453 [15] = test: as above; remark: listed apart in the source
Protocol: as §2

MDA-MB-231 [16] = test: as above; remark: listed apart in the source
Protocol: as §2

HCC1599 [17] = test: as above; remark: listed apart in the source
Protocol: as §2

MFM-223 [18] = test: as above; remark: listed apart in the source
Protocol: as §2

MDA-MB-436 [19] = test: drug sensitivity score (DSS), CellTiter-Glo (DSS (AUC-based score)); higher = stronger drug effect (viability inhibition or cytotoxicity); extreme values may be limits of the assay
Outline: (§3)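 Normalisation on every plate relied on 0.1 % DMSO and a positive kill control. The plates, 384-well format, held compound at 5 concentrations 10-fold apart across a compound-specific 10,000-fold range, and breast cancer cell lines in 20 µl suspension were incubated on them for 72 h before CellTox Green and then CellTiter-Glo readings. The drug sensitivity score derives from the area under the fitted dose-response curve.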

BT-549 [20] = test: as above
Outline: as §3

MCF-10A = test: as above
Outline: as §3

MFM-223 [21] = test: as above
Outline: as §3

HCC1937 [22] = test: as above
Outline: as §3

## CC[C@]1(O)C[C@H]2CN(CCc3c([nH]c4ccccc34)[C@@](C(=O)OC)(c3cc4c(cc3OC)N(C=O)[C@H]3[C@@](O)(C(=O)OC)[C@H](OC(C)=O)[C@]5(CC)C=CCN6CC[C@]43[C@@H]65)C2)C1 [Vincristine]
CAL-85-1; 0.3 nM
  normalised viability: 95.6%
CAL-85-1; 3 nM
  normalised viability: 86.1%
SK-BR-3; 1 nM
  normalised viability: 33.8%
SK-BR-3; 10 nM
  normalised viability: 15.9%
MDA-MB-436 [1]; 1 nM
  normalised viability: 105%
MDA-MB-436 [1]; 10 nM
  normalised viability: 70.6%
CAL-51 [2]; 0.3 nM
  normalised viability: 102%
CAL-51 [2]; 3 nM
  normalised viability: 103%
HDQ-P1; 0.3 nM
  normalised viability: 100%
HDQ-P1; 3 nM
  normalised viability: 96.4%
CAL-120 [3]; 1 nM
  normalised viability: 58.2%
CAL-120 [3]; 10 nM
  normalised viability: 23.4%
Hs578T [4]; 1 nM
  normalised viability: 97.2%
Hs578T [4]; 10 nM
  normalised viability: 15.5%
BT-549 [5]; 1 nM
  normalised viability: 82.7%
BT-549 [5]; 10 nM
  normalised viability: 43.7%
CAL-148; 0.3 nM
  normalised viability: 80.4%
CAL-148; 3 nM
  normalised viability: 85.3%
MDA-MB-453 [6]; 0.3 nM
  normalised viability: 112%
MDA-MB-453 [6]; 3 nM
  normalised viability: 65%
BT-474; 1 nM
  normalised viability: 53.4%
BT-474; 10 nM
  normalised viability: 47.9%
MDA-MB-231 [7]; 1 nM
  normalised viability: 73.8%
MDA-MB-231 [7]; 10 nM
  normalised viability: 27.5%
HCC1599 [8]; 1 nM
  normalised viability: 84.1%
HCC1599 [8]; 10 nM
  normalised viability: 106%
DU-4475; 0.3 nM
  normalised viability: 96.6%
DU-4475; 3 nM
  normalised viability: 89%
MDA-MB-468; 1 nM
  normalised viability: 54.2%
MDA-MB-468; 10 nM
  normalised viability: 41.2%
MFM-223 [9]; 1 nM
  normalised viability: 91.1%
MFM-223 [9]; 10 nM
  normalised viability: 85.5%
HCC1937 [10]; 1 nM
  normalised viability: 99.2%
HCC1937 [10]; 10 nM
  normalised viability: 23.1%
HCC1143; 1 nM
  normalised viability: 71%
HCC1143; 10 nM
  normalised viability: 40.7%
MDA-MB-436 [11]; 10 nM
  normalised viability: 52.4%
MDA-MB-436 [11]; 100 nM
  normalised viability: 44.9%
CAL-51 [12]; 1 nM
  normalised viability: 108%
CAL-51 [12]; 10 nM
  normalised viability: 87.8%
CAL-120 [13]; 10 nM
  normalised viability: 22.9%
CAL-120 [13]; 100 nM
  normalised viability: 20%
Hs578T [14]; 10 nM
  normalised viability: 16.6%
Hs578T [14]; 100 nM
  normalised viability: 19.3%
MDA-MB-453 [15]; 1 nM
  normalised viability: 103%
MDA-MB-453 [15]; 10 nM
  normalised viability: 31.6%
MDA-MB-231 [16]; 10 nM
  normalised viability: 29.5%
MDA-MB-231 [16]; 100 nM
  normalised viability: 16.1%
HCC1599 [17]; 10 nM
  normalised viability: 93.5%
HCC1599 [17]; 100 nM
  normalised viability: 51.1%
MFM-223 [18]; 10 nM
  normalised viability: 59.8%
MFM-223 [18]; 100 nM
  normalised viability: 39.5%
MDA-MB-436 [19]
  drug sensitivity score: 17.1
BT-549 [20]
  drug sensitivity score: 21.1
MCF-10A
  drug sensitivity score: 10.1
MFM-223 [21]
  drug sensitivity score: 11.6
HCC1937 [22]
  drug sensitivity score: 7.53

## COc1ccc(-c2ccc3c(N4CCOC[C@@H]4C)nc(N4CCOC[C@@H]4C)nc3n2)cc1CO [AZD8055]
CAL-85-1; 3 nM
  normalised viability: 85.1%
SK-BR-3; 10 nM
  normalised viability: 72.5%
MDA-MB-436 [1]; 10 nM
  normalised viability: 98.3%
CAL-51 [2]; 3 nM
  normalised viability: 88.2%
HDQ-P1; 3 nM
  normalised viability: 83.4%
CAL-120 [3]; 10 nM
  normalised viability: 91.4%
Hs578T [4]; 10 nM
  normalised viability: 91.1%
BT-549 [5]; 10 nM
  normalised viability: 92.5%
CAL-148; 3 nM
  normalised viability: 89.3%
MDA-MB-453 [6]; 3 nM
  normalised viability: 94.6%
BT-474; 10 nM
  normalised viability: 108%
MDA-MB-231 [7]; 10 nM
  normalised viability: 80.7%
HCC1599 [8]; 10 nM
  normalised viability: 89.3%
DU-4475; 3 nM
  normalised viability: 95.8%
MDA-MB-468; 10 nM
  normalised viability: 98.2%
MFM-223 [9]; 10 nM
  normalised viability: 71.9%
HCC1937 [10]; 10 nM
  normalised viability: 77.2%
HCC1143; 10 nM
  normalised viability: 100%
MDA-MB-436 [11]; 100 nM
  normalised viability: 70.7%
CAL-51 [12]; 10 nM
  normalised viability: 67.4%
CAL-120 [13]; 100 nM
  normalised viability: 32.5%
Hs578T [14]; 100 nM
  normalised viability: 33.7%
MDA-MB-453 [15]; 10 nM
  normalised viability: 80.3%
MDA-MB-231 [16]; 100 nM
  normalised viability: 50%
HCC1599 [17]; 100 nM
  normalised viability: 65.9%
MFM-223 [18]; 100 nM
  normalised viability: 26.6%
MDA-MB-436 [19]
  drug sensitivity score: 18.9
BT-549 [20]
  drug sensitivity score: 23.9
MCF-10A
  drug sensitivity score: 19.3
MFM-223 [21]
  drug sensitivity score: 23.8
HCC1937 [22]
  drug sensitivity score: 14.9

## CN1CCN(CCOc2cc(OC3CCOCC3)c3c(Nc4c(Cl)ccc5c4OCO5)ncnc3c2)CC1 [Saracatinib]
CAL-85-1; 3 nM
  normalised viability: 85.5%
SK-BR-3; 10 nM
  normalised viability: 99.6%
MDA-MB-436 [1]; 10 nM
  normalised viability: 116%
CAL-51 [2]; 3 nM
  normalised viability: 107%
HDQ-P1; 3 nM
  normalised viability: 118%
CAL-120 [3]; 10 nM
  normalised viability: 87.6%
Hs578T [4]; 10 nM
  normalised viability: 102%
BT-549 [5]; 10 nM
  normalised viability: 94.2%
CAL-148; 3 nM
  normalised viability: 77.1%
MDA-MB-453 [6]; 3 nM
  normalised viability: 119%
BT-474; 10 nM
  normalised viability: 100%
MDA-MB-231 [7]; 10 nM
  normalised viability: 80.7%
HCC1599 [8]; 10 nM
  normalised viability: 86.7%
DU-4475; 3 nM
  normalised viability: 96.6%
MDA-MB-468; 10 nM
  normalised viability: 108%
MFM-223 [9]; 10 nM
  normalised viability: 104%
HCC1937 [10]; 10 nM
  normalised viability: 107%
HCC1143; 10 nM
  normalised viability: 88%
MDA-MB-436 [11]; 100 nM
  normalised viability: 109%
CAL-51 [12]; 10 nM
  normalised viability: 106%
CAL-120 [13]; 100 nM
  normalised viability: 87.7%
Hs578T [14]; 100 nM
  normalised viability: 95.7%
MDA-MB-453 [15]; 10 nM
  normalised viability: 105%
MDA-MB-231 [16]; 100 nM
  normalised viability: 76.5%
HCC1599 [17]; 100 nM
  normalised viability: 108%
MFM-223 [18]; 100 nM
  normalised viability: 99.6%
MDA-MB-436 [19]
  drug sensitivity score: 0.426
BT-549 [20]
  drug sensitivity score: 3.75
MCF-10A
  drug sensitivity score: 13.4
MFM-223 [21]
  drug sensitivity score: 0
HCC1937 [22]
  drug sensitivity score: 3.31

## CN(C)C[C@@H]1CCn2cc(c3ccccc32)C2=C(C(=O)NC2=O)c2cn(c3ccccc23)CCO1 [Ruboxistaurin]
CAL-85-1; 3 nM
  normalised viability: 105%
SK-BR-3; 10 nM
  normalised viability: 101%
MDA-MB-436 [1]; 10 nM
  normalised viability: 94.1%
CAL-51 [2]; 3 nM
  normalised viability: 98.6%
HDQ-P1; 3 nM
  normalised viability: 79.3%
CAL-120 [3]; 10 nM
  normalised viability: 108%
Hs578T [4]; 10 nM
  normalised viability: 96.4%
BT-549 [5]; 10 nM
  normalised viability: 85.2%
CAL-148; 3 nM
  normalised viability: 124%
MDA-MB-453 [6]; 3 nM
  normalised viability: 94.7%
BT-474; 10 nM
  normalised viability: 96.7%
MDA-MB-231 [7]; 10 nM
  normalised viability: 95%
HCC1599 [8]; 10 nM
  normalised viability: 109%
DU-4475; 3 nM
  normalised viability: 113%
MDA-MB-468; 10 nM
  normalised viability: 94.5%
MFM-223 [9]; 10 nM
  normalised viability: 97.6%
HCC1937 [10]; 10 nM
  normalised viability: 44.5%
HCC1143; 10 nM
  normalised viability: 135%
MDA-MB-436 [11]; 100 nM
  normalised viability: 91.6%
CAL-51 [12]; 10 nM
  normalised viability: 91.8%
CAL-120 [13]; 100 nM
  normalised viability: 126%
Hs578T [14]; 100 nM
  normalised viability: 68.9%
MDA-MB-453 [15]; 10 nM
  normalised viability: 96.7%
MDA-MB-231 [16]; 100 nM
  normalised viability: 95.8%
HCC1599 [17]; 100 nM
  normalised viability: 111%
MFM-223 [18]; 100 nM
  normalised viability: 105%
MDA-MB-436 [19]
  drug sensitivity score: 6.47
BT-549 [20]
  drug sensitivity score: 6.4
MCF-10A
  drug sensitivity score: 3.64
MFM-223 [21]
  drug sensitivity score: 4.27
HCC1937 [22]
  drug sensitivity score: 3.65
